The values that follow come from US10798941B2, “Microbiocidal oxadiazole derivatives” (SYNGENTA PARTICIPATIONS AG, priority 2016, dated 2020).

Data set [1] relates to Puccinia recondita f. Sp. Tritici. Put plainly: Puccinia recondita f. sp. tritici / wheat / leaf disc preventative (brown rust). Type of data set: in vivo. As to conditions: foliar, 168 h, 200 ppm in the applied formulation, wheat leaf segments cv. Kanzler, preventative, inoculated 1 day after application, assessed 7 to 9 days after application, vs untreated, read-out: disease control. The gist of the method:
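Preventative leaf-segment test: spray application of diluted formulated compound on wheat cv. Kanzler, spore inoculation after 1 day. Percent control relative to untreated segments rated 7 to 9 days post-application, with incubation at 19° C, 75% relative humidity, 12 h photoperiod.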

Data set [2] has the same test system. Put plainly: Puccinia recondita f. sp. tritici / wheat / leaf disc curative (brown rust). Type of data set: in vivo. To be noted: foliar, 144 h, 200 ppm in the applied formulation, wheat leaf segments cv. Kanzler, applied 1 day after inoculation, assessed 6 to 8 days after application, vs untreated, read-out: disease control. Put shortly: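 Curative leaf-segment test, cv. Kanzler: spore inoculation, dark storage 19° C/75% RH, compound spray 1 day post-inoculation. Then 12 h light/12 h dark, 19° C, 75% RH. Read-out: % disease control vs untreated check, 6–8 d after application.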

The subject of data set [3] is Phakopsora pachyrhizi. Put plainly: Phakopsora pachyrhizi / soybean / leaf disc preventative (Asian soybean rust). Type of data set: in vivo. To be noted: foliar, 288 h, 200 ppm in the applied formulation, soybean leaf disks, inoculated one day after application, assessed 12 to 14 days after application, vs untreated, read-out: disease control. Put shortly:
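Read-out is percent disease control relative to untreated check discs, assessed once untreated discs show adequate disease, 12 to 14 days after application. Compounds, tested at 200 ppm in the applied formulation, are sprayed onto soybean leaf discs one day before inoculation with a spore suspension.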

The subject of data set [4] is Glomerella Lagenarium (Colletotrichum Lagenarium). In words: Glomerella lagenarium (Colletotrichum lagenarium) liquid culture / cucumber / preventative (anthracnose). It is filed as cell-based. To be noted: Colletotrichum orbiculare; 20 ppm in the applied formulation; liquid culture in PDB, 24° C., inhibition of growth measured photometrically 3 to 4 days after application, vs untreated; read-out: disease control. The gist of the method:
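Conidia from cryogenic storage were mixed into potato dextrose broth. This was added to compound diluted from DMSO into 0.025% Tween20, tested at 20 ppm. Plates were incubated in the dark at 24 °C and 96% relative humidity, and growth was read photometrically after 2–7 days as % activity versus untreated check.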

For the compound `CCc1cccc(CC)c1-n1ncc(-c2cn(Cc3ccc(-c4noc(C(F)(F)F)n4)cc3)nn2)c1C` [Compound 1.31, 3-[4-[[4-[1-(2,6-diethylphenyl)-5-methyl-pyrazol-4-yl]triazol-1-yl]methyl]phenyl]-5-(trifluoromethyl)-1,2,4-oxadiazole], the melting point fell in the range of 157.6 to 161.9 °C.
As for `FC(F)(F)c1ncn(Cc2ccc(-c3noc(C(F)(F)F)n3)cc2)n1` [Compound 1.39], the melting point was 68.2 to 70.1 °C.
Consider `N#Cc1ncnn1Cc1ccc(-c2noc(C(F)(F)F)n2)cc1` [Compound 1.41, 2-[[4-[5-(trifluoromethyl)-1,2,4-oxadiazol-3-yl]phenyl]methyl]-1,2,4-triazole-3-carbonitrile], for which the melting point lay within 120 to 124 °C.
Still for that read-out and setting: under `CN(C)C(=O)c1cnn(Cc2ccc(-c3noc(C(F)(F)F)n3)cc2)c1` [Compound 1.149, N,N-dimethyl-1-[[4-[5-(trifluoromethyl)-1,2,4-oxadiazol-3-yl]phenyl]methyl]pyrazole-4-carboxamide] stands 124 to 129 °C; under `CNC(=O)c1cnn(Cc2ccc(-c3noc(C(F)(F)F)n3)cc2)c1` [Compound 1.150, N-methyl-1-[[4-[5-(trifluoromethyl)-1,2,4-oxadiazol-3-yl]phenyl]methyl]pyrazole-4-carboxamide], 156 to 161 °C.
Take `COC(=O)c1cn(Cc2ccc(-c3noc(C(F)(F)F)n3)cc2)nc1C1CC1` [Compound 1.237, methyl 3-cyclopropyl-1-[[4-[5-(trifluoromethyl)-1,2,4-oxadiazol-3-yl]phenyl]methyl]pyrazole-4-carboxylate]: the pest or weed control at 200 ppm in data set [1], in data set [2] and in data set [3] was not below 80% each time. The inhibition of growth at 20 ppm in data set [4] is not below 80%.
For the compound `COCc1nn(Cc2ccc(-c3noc(C(F)(F)F)n3)cc2)cc1C(=O)OC` [Compound 1.238, methyl 3-(methoxymethyl)-1-[[4-[5-(trifluoromethyl)-1,2,4-oxadiazol-3-yl]phenyl]methyl]pyrazole-4-carboxylate], the pest or weed control at 200 ppm in data set [1], in data set [2] and in data set [3] was not below 80% in each case. Also, the inhibition of growth at 20 ppm in data set [4] is not below 80%.
For the compound `COCc1c(C(=O)OC)cnn1Cc1ccc(-c2noc(C(F)(F)F)n2)cc1` [Compound 1.239, methyl 5-(methoxymethyl)-1-[[4-[5-(trifluoromethyl)-1,2,4-oxadiazol-3-yl]phenyl]methyl]pyrazole-4-carboxylate], the pest or weed control at 200 ppm in data set [1], in data set [2] and in data set [3] was not below 80% each time. Moreover, the inhibition of growth at 20 ppm in data set [4] is not below 80%.
For `FC(F)(F)c1nc(-c2ccc(Cn3ccc(Cl)n3)cc2)no1` [Compound 1.243, 3-[4-[(3-chloropyrazol-1-yl)methyl]phenyl]-5-(trifluoromethyl)-1,2,4-oxadiazole], the pest or weed control at 200 ppm in data set [1], in data set [2] and in data set [3] was not below 80% each time. In data set [4], the inhibition of growth at 20 ppm was not below 80%.
Consider `FC(F)(F)c1nc(-c2ccc(Cn3cccc4nnnc3-4)cc2)no1` [Compound 1.244, 3-[4-(triazolo[4,5-b]pyridin-4-ylmethyl)phenyl]-5-(trifluoromethyl)-1,2,4-oxadiazole], for which the pest or weed control at 200 ppm in data set [1], in data set [2] and in data set [3] was not below 80% each time. In data set [4], the inhibition of growth at 20 ppm is not below 80%.
Compound `COC(=O)c1cnn(Cc2ccc(-c3noc(C(F)(F)F)n3)cc2)c1` [Compound 1.248, methyl 1-[[4-[5-(trifluoromethyl)-1,2,4-oxadiazol-3-yl]phenyl]methyl]pyrazole-4-carboxylate] gave a melting point of 122 to 129 °C.
Still for that read-out and setting: under `CCOC(=O)c1cnn(Cc2ccc(-c3noc(C(F)(F)F)n3)c(F)c2)c1` [Compound 1.252, ethyl 1-[[3-fluoro-4-[5-(trifluoromethyl)-1,2,4-oxadiazol-3-yl]phenyl]methyl]pyrazole-4-carboxylate] stands 131 to 135 °C.
For `Cc1cc(C)n(Cc2ccc(-c3noc(C(F)(F)F)n3)c(F)c2)n1` [Compound 1.253, 3-[4-[(3,5-dimethylpyrazol-1-yl)methyl]-2-fluoro-phenyl]-5-(trifluoromethyl)-1,2,4-oxadiazole], the pest or weed control at 200 ppm in data set [1], in data set [2] and in data set [3] was not below 80% throughout. For the same compound, the inhibition of growth at 20 ppm in data set [4] was not below 80%.
On to `N#Cc1ncnn1Cc1ccc(-c2noc(C(F)(F)F)n2)c(F)c1` [Compound 1.256, 2-[[3-fluoro-4-[5-(trifluoromethyl)-1,2,4-oxadiazol-3-yl]phenyl]methyl]-1,2,4-triazole-3-carbonitrile], for which the pest or weed control at 200 ppm in data set [1], in data set [2] and in data set [3] was not below 80% in each case. The inhibition of growth at 20 ppm in data set [4] is not below 80%.
On to `CCN(CC)C(=O)c1cnn(Cc2ccc(-c3noc(C(F)(F)F)n3)cc2)c1` [Compound 1.259, N,N-diethyl-1-[[4-[5-(trifluoromethyl)-1,2,4-oxadiazol-3-yl]phenyl]methyl]pyrazole-4-carboxamide], for which the melting point was in the range of 86 to 96 °C.
In turn, `CON(C)C(=O)c1cnn(Cc2ccc(-c3noc(C(F)(F)F)n3)cc2)c1` [Compound 1.260, N-methoxy-N-methyl-1-[[4-[5-(trifluoromethyl)-1,2,4-oxadiazol-3-yl]phenyl]methyl]pyrazole-4-carboxamide] registered a melting point of 102 to 112 °C.
On to `CC(C)OC(=O)c1cnn(Cc2ccc(-c3noc(C(F)(F)F)n3)cc2)c1` [Compound 1.263, isopropyl 1-[[4-[5-(trifluoromethyl)-1,2,4-oxadiazol-3-yl]phenyl]methyl]pyrazole-4-carboxylate], for which the pest or weed control at 200 ppm in data set [1], in data set [2] and in data set [3] was not below 80% in each case. Moreover, in data set [4], the inhibition of growth at 20 ppm is not below 80%.
`CCCOC(=O)c1cnn(Cc2ccc(-c3noc(C(F)(F)F)n3)cc2)c1` [Compound 1.264, propyl 1-[[4-[5-(trifluoromethyl)-1,2,4-oxadiazol-3-yl]phenyl]methyl]pyrazole-4-carboxylate]: the melting point was in the range of 105 to 115 °C.
Same read-out and setting: in the case of `CONC(=O)c1cnn(Cc2ccc(-c3noc(C(F)(F)F)n3)cc2)c1` [Compound 1.266, ~{N}-methoxy-1-[[4-[5-(trifluoromethyl)-1,2,4-oxadiazol-3-yl]phenyl]methyl]pyrazole-4-carboxamide] it was 128 to 138 °C; in that of `CCNC(=O)c1cnn(Cc2ccc(-c3noc(C(F)(F)F)n3)cc2)c1` [Compound 1.267, ~{N}-ethyl-1-[[4-[5-(trifluoromethyl)-1,2,4-oxadiazol-3-yl]phenyl]methyl]pyrazole-4-carboxamide], 166 to 176 °C.
In turn, `CON=Cc1cnn(Cc2ccc(-c3noc(C(F)(F)F)n3)cc2)c1` [Compound 1.285] showed a melting point of 88 to 98 °C.
Take `CC(C)ON=Cc1cnn(Cc2ccc(-c3noc(C(F)(F)F)n3)cc2)c1` [Compound 1.288, N-isopropoxy-1-[1-[[4-[5-(trifluoromethyl)-1,2,4-oxadiazol-3-yl]phenyl]methyl]pyrazol-4-yl]methanimine]: the pest or weed control at 200 ppm in data set [1], in data set [2] and in data set [3] was not below 80% each time. Moreover, the inhibition of growth at 20 ppm in data set [4] was not below 80%.
Turning to `Cc1cc(C)n(C(C)c2ccc(-c3noc(C(F)(F)F)n3)cc2)n1` (stereo not shown) [Compound 1.303, 3-[4-[1-(3,5-dimethylpyrazol-1-yl)ethyl]phenyl]-5-(trifluoromethyl)-1,2,4-oxadiazole], the pest or weed control at 200 ppm in data set [1], in data set [2] and in data set [3] was not below 80% throughout. The inhibition of growth at 20 ppm in data set [4] is not below 80%.
`CC1CN(Cc2ccc(-c3noc(C(F)(F)F)n3)cc2)CC(C)O1` (stereo not shown) [Compound 1.306, 2,6-dimethyl-4-[[4-[5-(trifluoromethyl)-1,2,4-oxadiazol-3-yl]phenyl]methyl]morpholine]: the pest or weed control at 200 ppm in data set [1], in data set [2] and in data set [3] was not below 80% throughout. The inhibition of growth at 20 ppm in data set [4] is not below 80%.
For `N#CC(c1ccc(-c2noc(C(F)(F)F)n2)cc1)N1CCOCC1` (stereo not shown) [Compound 1.312, 2-morpholino-2-[4-[5-(trifluoromethyl)-1,2,4-oxadiazol-3-yl]phenyl]acetonitrile], the pest or weed control at 200 ppm in data set [1], in data set [2] and in data set [3] was not below 80% in each case. In addition, the inhibition of growth at 20 ppm in data set [4] is not below 80%.
